ChEMBL document CHEMBL4837189, “Opportunities and Limitations for Assigning Relative Configurations of Antibacterial Bislactones using GIAO NMR Shift Calculations” (J Nat Prod, 2021)
Values after ≈ are worked out from the molar mass of the structure shown.

Tests used:
OVCAR-3 = experiment: Cytotoxicty against human OVCAR-3 cells assessed as reduction in cell viability at > 25 uM measured after 72 hrs by CellTiter-Blue cell viability assay; assay type: cell-based; settings: ovcar-3, 72 h
MDA-MB-435 = experiment: Cytotoxicty against human MDA-MB-435 cells assessed as reduction in cell viability at > 25 uM measured after 72 hrs by CellTiter-Blue cell viability assay; assay type: cell-based; settings: mda-mb-435, 72 h
Pseudomonas aeruginosa = experiment: Antimicrobial activity against Pseudomonas aeruginosa assessed as microbial growth inhibition by CLSI-protocol based broth microdilution assay; assay type: functional
Staphylococcus aureus [1] = experiment: Antimicrobial activity against Staphylococcus aureus assessed as microbial growth inhibition by CLSI-protocol based broth microdilution assay; assay type: functional
Bacillus anthracis = experiment: Antimicrobial activity against Bacillus anthracis assessed as microbial growth inhibition by CLSI-protocol based broth microdilution assay; assay type: functional
MDA-MB-231 = experiment: Cytotoxicty against human MDA-MB-231 cells assessed as reduction in cell viability at > 25 uM measured after 72 hrs by CellTiter-Blue cell viability assay; assay type: cell-based; settings: mda-mb-231, 72 h
Escherichia coli = experiment: Antimicrobial activity against Escherichia coli assessed as microbial growth inhibition by CLSI-protocol based broth microdilution assay; assay type: functional
Staphylococcus aureus [2] = experiment: Antimicrobial activity against methicillin-resistant Staphylococcus aureus assessed as microbial growth inhibition by CLSI-protocol based broth microdilution assay; assay type: functional

Structure (SMILES)	Activity (OVCAR-3)	Activity (MDA-MB-435)	MIC (Pseudomonas aeruginosa)	MIC (Staphylococcus aureus [1])	MIC (Bacillus anthracis)	Activity (MDA-MB-231)	MIC (Escherichia coli)	MIC (Staphylococcus aureus [2])
CC1OC(=O)/C=C/[C@@H](O)CC[C@H](C)OC(=O)CCC1=O (stereo partly drawn)	Non-Toxic	Non-Toxic	125 µg/mL (≈ 440 µM)	1 µg/mL (≈ 3.52 µM)	62.5 µg/mL (≈ 220 µM)	Non-Toxic	125 µg/mL (≈ 440 µM)	125 µg/mL (≈ 440 µM)
C[C@@H]1OC(=O)/C=C/[C@@H](O)CC[C@H](C)OC(=O)CC[C@@H]1O			125 µg/mL (≈ 437 µM)	4 µg/mL (≈ 14 µM)	125 µg/mL (≈ 437 µM)		125 µg/mL (≈ 437 µM)	125 µg/mL (≈ 437 µM)
CC(=C\C(=O)O)/C=C(\C)C[C@H](C)CCCC[C@H]1OC(=O)[C@@H]1CO [ANTIBIOTIC 1233A]			125 µg/mL (≈ 385 µM)	125 µg/mL (≈ 385 µM)	> 250 µg/mL		> 250 µg/mL	125 µg/mL (≈ 385 µM)
CC[C@H]1OC(=O)[C@H](C)[C@@H](O[C@H]2C[C@@](C)(OC)[C@@H](O)[C@H](C)O2)[C@H](C)[C@@H](O[C@@H]2O[C@H](C)C[C@H](N(C)C)[C@H]2O)[C@](C)(OC)C[C@@H](C)C(=O)[C@H](C)[C@@H](O)[C@]1(C)O [CLARITHROMYCIN]			125 µg/mL (≈ 167 µM)	0.25 µg/mL (≈ 0.334 µM)	0.25 µg/mL (≈ 0.334 µM)		16 µg/mL (≈ 21.4 µM)	> 250 µg/mL
CC[C@H]1OC(=O)[C@H](C)[C@@H](O[C@H]2C[C@@](C)(OC)[C@@H](O)[C@H](C)O2)[C@H](C)[C@@H](O[C@@H]2O[C@H](C)C[C@H](N(C)C)[C@H]2O)[C@](C)(O)C[C@@H](C)C(=O)[C@H](C)[C@@H](O)[C@]1(C)O [ERYTHROMYCIN]			62.5 µg/mL (≈ 85.2 µM)	0.5 µg/mL (≈ 0.681 µM)	0.25 µg/mL (≈ 0.341 µM)		16 µg/mL (≈ 21.8 µM)	0.25 µg/mL (≈ 0.341 µM)
CC1(C)S[C@@H]2[C@H](NC(=O)Cc3ccccc3)C(=O)N2[C@H]1C(=O)O [PENICILLIN G]			> 250 µg/mL	0.25 µg/mL (≈ 0.748 µM)	0.25 µg/mL (≈ 0.748 µM)		16 µg/mL (≈ 47.8 µM)	0.5 µg/mL (≈ 1.5 µM)
CO[C@H]1/C=C/O[C@@]2(C)Oc3c(C)c(O)c4c(O)c(c(/C=N/N5CCN(C)CC5)c(O)c4c3C2=O)NC(=O)/C(C)=C\C=C\[C@H](C)[C@H](O)[C@@H](C)[C@@H](O)[C@@H](C)[C@H](OC(C)=O)[C@@H]1C [RIFAMPIN]			62.5 µg/mL (≈ 75.9 µM)	0.25 µg/mL (≈ 0.304 µM)	0.25 µg/mL (≈ 0.304 µM)		4 µg/mL (≈ 4.86 µM)	0.25 µg/mL (≈ 0.304 µM)
CN[C@@H]1[C@H](O[C@H]2[C@H](O[C@H]3[C@H](O)[C@@H](O)[C@H](N=C(N)N)[C@@H](O)[C@@H]3N=C(N)N)O[C@@H](C)[C@]2(O)C=O)O[C@@H](CO)[C@H](O)[C@H]1O [STREPTOMYCIN]			1 µg/mL (≈ 1.72 µM)	0.25 µg/mL (≈ 0.43 µM)	0.25 µg/mL (≈ 0.43 µM)		0.25 µg/mL (≈ 0.43 µM)	0.25 µg/mL (≈ 0.43 µM)
